Key:
HuO9 = experiment: cells; assay type: functional, cell-based, Homo sapiens; conditions: Homo sapiens, HuO9;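 further: growth inhibition of HuO9 cells, read out with a cell viability assay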
Description: SANGER: Inhibition of human HuO9 cell growth in a cell viability assay.

TGBC11TKB = experiment: cells; assay type: functional, cell-based; conditions: Homo sapiens;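 further: growth inhibition of human TGBC11TKB cells, measured by a cell viability assay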
Description: SANGER: Inhibition of human TGBC11TKB cell growth in a cell viability assay.

NCI-H1048 = experiment: cells; assay type: functional, cell-based; conditions: Homo sapiens;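 further: growth inhibition of human NCI-H1048 cells, read out with a cell viability assay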
Description: SANGER: Inhibition of human NCI-H1048 cell growth in a cell viability assay.

SW 1116 = experiment: cells; assay type: functional, cell-based; conditions: Homo sapiens;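 further: growth inhibition of SW1116 cells, read out with a cell viability assay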
Description: SANGER: Inhibition of human SW1116 cell growth in a cell viability assay.

SNU-423 = experiment: cells; assay type: functional, cell-based, Homo sapiens; conditions: Homo sapiens, SNU-423
Description: SANGER: Inhibition of human SNU-423 cell growth in a cell viability assay.

CFPAC-1 = experiment: cells; assay type: functional, cell-based; conditions: Homo sapiens;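 further: cell viability readout used to gauge suppression of CFPAC-1 cell proliferation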
Description: SANGER: Inhibition of human CFPAC-1 cell growth in a cell viability assay.

ZR-75-30 = experiment: cells; assay type: functional, cell-based; conditions: Homo sapiens;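 further: growth inhibition of ZR-75-30 cells, measured with a cell viability readout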
Description: SANGER: Inhibition of human ZR-75-30 cell growth in a cell viability assay.

HT55 = experiment: cells; assay type: functional, cell-based, Homo sapiens; conditions: Homo sapiens, HT55;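 further: cell viability readout measuring growth inhibition of human HT55 cells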
Description: SANGER: Inhibition of human HT55 cell growth in a cell viability assay.

YH-13 = experiment: cells; assay type: functional, cell-based; conditions: Homo sapiens;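 further: cell viability readout of growth suppression in the human YH-13 cell line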
Description: SANGER: Inhibition of human YH-13 cell growth in a cell viability assay.

NCI-H1703 = experiment: cells; assay type: functional, cell-based, Homo sapiens; conditions: Homo sapiens, NCI-H1703;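 further: growth inhibition of NCI-H1703 cells, read out via a cell viability assay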
Description: SANGER: Inhibition of human NCI-H1703 cell growth in a cell viability assay.

OC-314 = experiment: cells; assay type: functional, cell-based; conditions: Homo sapiens
Description: SANGER: Inhibition of human OC-314 cell growth in a cell viability assay.

NCI-H2291 = experiment: cells; assay type: functional, cell-based; conditions: Homo sapiens
Description: SANGER: Inhibition of human NCI-H2291 cell growth in a cell viability assay.

NCI-H1573 = experiment: cells; assay type: functional, cell-based; conditions: Homo sapiens;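 further: growth inhibition of NCI-H1573 cells, read out with a cell viability assay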
Description: SANGER: Inhibition of human NCI-H1573 cell growth in a cell viability assay.

Kasumi 1 = experiment: cells; assay type: functional, cell-based; conditions: Homo sapiens;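 further: growth inhibition of human Kasumi-1 cells, read out by a cell viability assay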
Description: SANGER: Inhibition of human KASUMI-1 cell growth in a cell viability assay.

MOLT-13 = experiment: cells; assay type: functional, cell-based; conditions: Homo sapiens;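 further: IC50 for suppression of MOLT-13 cell growth, read out with a cell viability assay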
Description: SANGER: Inhibition of human MOLT-13 cell growth in a cell viability assay.

UACC-812 = experiment: cells; assay type: functional, cell-based; conditions: Homo sapiens
Description: SANGER: Inhibition of human UACC-812 cell growth in a cell viability assay.

EB2 = experiment: cells; assay type: functional, cell-based; conditions: Homo sapiens;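 further: growth inhibition of EB2 cells, read out with a cell viability assay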
Description: SANGER: Inhibition of human EB2 cell growth in a cell viability assay.

NCCIT = experiment: SANGER: Inhibition of human NCCIT cell growth in a cell viability assay.; assay type: functional, cell-based
KARPAS-422 = experiment: cells; assay type: functional, cell-based; conditions: Homo sapiens
Description: SANGER: Inhibition of human KARPAS-422 cell growth in a cell viability assay.

NB1 = experiment: cells; assay type: functional, cell-based; conditions: Homo sapiens;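 further: reduction of NB1 cell proliferation, read out with a viability assay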
Description: SANGER: Inhibition of human NB1 cell growth in a cell viability assay.

DMS-153 = experiment: cells; assay type: functional, cell-based; conditions: Homo sapiens
Description: SANGER: Inhibition of human DMS-153 cell growth in a cell viability assay.

CMK = experiment: cells; assay type: functional, cell-based; conditions: Homo sapiens;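 further: growth inhibition of CMK cells, read out as cell viability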
Description: SANGER: Inhibition of human CMK cell growth in a cell viability assay.

IMR-5 = experiment: cells; assay type: functional, cell-based; conditions: Homo sapiens;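 further: growth inhibition of human IMR-5 cells, read out with a cell viability assay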
Description: SANGER: Inhibition of human IMR-5 cell growth in a cell viability assay.

RPMI-6666 = experiment: cells; assay type: functional, cell-based; conditions: Homo sapiens
Description: SANGER: Inhibition of human RPMI-6666 cell growth in a cell viability assay.

NCI-H2196 = experiment: cells; assay type: functional, cell-based; conditions: Homo sapiens;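 further: cell viability assay used as the readout of growth inhibition in NCI-H2196 cells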
Description: SANGER: Inhibition of human NCI-H2196 cell growth in a cell viability assay.

TALL-1 = experiment: cells; assay type: functional, cell-based; conditions: Homo sapiens;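 further: growth inhibition of cultured human TALL-1 cells, read out by a cell viability assay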
Description: SANGER: Inhibition of human TALL-1 cell growth in a cell viability assay.

PF-382 = experiment: cells; assay type: functional, cell-based; conditions: Homo sapiens
Description: SANGER: Inhibition of human PF-382 cell growth in a cell viability assay.

BL-41 = experiment: cells; assay type: functional, cell-based; conditions: Homo sapiens;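 further: growth inhibition of human BL-41 cells, read out with a cell viability assay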
Description: SANGER: Inhibition of human BL-41 cell growth in a cell viability assay.

NCI-H1882 = experiment: cells; assay type: functional, cell-based; conditions: Homo sapiens;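 further: growth inhibition of the cell line, determined with a viability assay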
Description: SANGER: Inhibition of human NCI-H1882 cell growth in a cell viability assay.

SU-DHL-1 = experiment: SANGER: Inhibition of human SU-DHL-1 cell growth in a cell viability assay.; assay type: functional, cell-based
ARH-77 = experiment: cells; assay type: functional, cell-based; conditions: Homo sapiens;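 further: growth inhibition of ARH-77 cells, read out by a cell viability assay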
Description: SANGER: Inhibition of human ARH-77 cell growth in a cell viability assay.

NCI-H2081 = experiment: cells; assay type: functional, cell-based; conditions: Homo sapiens;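 further: growth inhibition of human NCI-H2081 cells, read out with a cell viability assay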
Description: SANGER: Inhibition of human NCI-H2081 cell growth in a cell viability assay.

SCLC-21H = experiment: cells; assay type: functional, cell-based; conditions: Homo sapiens;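 further: growth inhibition of cultured human SCLC-21H cells, read out with a cell viability assay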
Description: SANGER: Inhibition of human SCLC-21H cell growth in a cell viability assay.

HCC1599 = experiment: cells; assay type: functional, cell-based; conditions: Homo sapiens;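 further: growth inhibition of HCC1599 cells, read out in a cell viability assay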
Description: SANGER: Inhibition of human HCC1599 cell growth in a cell viability assay.

NCI-H1694 = experiment: cells; assay type: functional, cell-based; conditions: Homo sapiens;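 further: cell viability assay measuring inhibition of growth in human NCI-H1694 cells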
Description: SANGER: Inhibition of human NCI-H1694 cell growth in a cell viability assay.

SUP-T1 = experiment: cells; assay type: functional, cell-based; conditions: Homo sapiens;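 further: growth inhibition of human SUP-T1 cells, read out as cell viability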
Description: SANGER: Inhibition of human SUP-T1 cell growth in a cell viability assay.

JIYOYE = experiment: cells; assay type: functional, cell-based; conditions: Homo sapiens
Description: SANGER: Inhibition of human JiyoyeP-2003 cell growth in a cell viability assay.

L-540 = experiment: cells; assay type: functional, cell-based; conditions: Homo sapiens;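 further: growth inhibition of the human L-540 cell line, read out with a viability assay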
Description: SANGER: Inhibition of human L-540 cell growth in a cell viability assay.

TE-441-T = experiment: cells; assay type: functional, cell-based; conditions: Homo sapiens
Description: SANGER: Inhibition of human TE-441-T cell growth in a cell viability assay.

MRK-nu-1 = experiment: cells; assay type: functional, cell-based; conditions: Homo sapiens;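 further: cell viability assay measuring growth suppression of human MRK-nu-1 cells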
Description: SANGER: Inhibition of human MRK-nu-1 cell growth in a cell viability assay.

EVSA-T = experiment: cells; assay type: functional, cell-based, Homo sapiens; conditions: Homo sapiens, EVSA-T;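 further: growth inhibition of EVSA-T cells, read out with a cell viability assay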
Description: SANGER: Inhibition of human EVSA-T cell growth in a cell viability assay.

CA46 = experiment: cells; assay type: functional, cell-based; conditions: Homo sapiens;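 further: growth inhibition of human CA46 cells, read out by a cell viability assay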
Description: SANGER: Inhibition of human CA46 cell growth in a cell viability assay.

LP-1 = experiment: cells; assay type: functional, cell-based; conditions: Homo sapiens;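 further: growth inhibition of human LP-1 cells, with the read-out taken from a cell viability assay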
Description: SANGER: Inhibition of human LP-1 cell growth in a cell viability assay.

Daudi = experiment: cells; assay type: functional, cell-based; conditions: Homo sapiens;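 further: growth inhibition of Daudi cells, read out by a viability assay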
Description: SANGER: Inhibition of human Daudi cell growth in a cell viability assay.

CPC-N = experiment: cells; assay type: functional, cell-based; conditions: Homo sapiens;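 further: growth inhibition of CPC-N cells, with a cell viability assay as the readout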
Description: SANGER: Inhibition of human CPC-N cell growth in a cell viability assay.

RL95-2 = experiment: cells; assay type: functional, cell-based; conditions: Homo sapiens;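 further: RL95-2 growth inhibition determined through a cell viability readout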
Description: SANGER: Inhibition of human RL95-2 cell growth in a cell viability assay.

NCI-H748 = experiment: cells; assay type: functional, cell-based; conditions: Homo sapiens;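 further: growth inhibition of NCI-H748 cells, measured by a cell viability assay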
Description: SANGER: Inhibition of human NCI-H748 cell growth in a cell viability assay.

RPMI 8402 = experiment: SANGER: Inhibition of human RPMI-8402 cell growth in a cell viability assay.; assay type: functional, cell-based
LC-1F = experiment: cells; assay type: functional, cell-based; conditions: Homo sapiens;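 further: growth inhibition of human LC-1F cells, read out with a cell viability assay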
Description: SANGER: Inhibition of human LC-1F cell growth in a cell viability assay.

KMS-12-PE = experiment: cells; assay type: functional, cell-based; conditions: Homo sapiens;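 further: growth inhibition of human KMS-12-PE cells, measured with a cell viability assay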
Description: SANGER: Inhibition of human KMS-12-PE cell growth in a cell viability assay.

NCI-H1522 = experiment: cells; assay type: functional, cell-based; conditions: Homo sapiens;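 further: growth inhibition of NCI-H1522 cells, read out with a cell viability assay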
Description: SANGER: Inhibition of human NCI-H1522 cell growth in a cell viability assay.

NCI-H719 = experiment: cells; assay type: functional, cell-based; conditions: Homo sapiens;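 further: growth inhibition of the cultured cell line, read out with a viability assay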
Description: SANGER: Inhibition of human NCI-H719 cell growth in a cell viability assay.

EHEB = experiment: cells; assay type: functional, cell-based; conditions: Homo sapiens;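 further: growth inhibition of human EHEB cells, read out with a cell viability assay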
Description: SANGER: Inhibition of human EHEB cell growth in a cell viability assay.

NCI-H1436 = experiment: cells; assay type: functional, cell-based; conditions: Homo sapiens;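 further: growth suppression of human NCI-H1436 cells, determined with a cell viability readout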
Description: SANGER: Inhibition of human NCI-H1436 cell growth in a cell viability assay.

NCI-H1417 = experiment: cells; assay type: functional, cell-based; conditions: Homo sapiens;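 further: human NCI-H1417 cells, growth inhibition determined with a cell viability readout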
Description: SANGER: Inhibition of human NCI-H1417 cell growth in a cell viability assay.

BL-70 = experiment: SANGER: Inhibition of human BL-70 cell growth in a cell viability assay.; assay type: functional, cell-based

Measured: IC50

CN(Cc1cnc2nc(N)nc(N)c2n1)c1ccc(C(=O)N[C@@H](CCC(=O)O)C(=O)O)cc1 [METHOTREXATE]
> 200 nM: HuO9 | TGBC11TKB | NCI-H1048 | SW 1116 | SNU-423 | CFPAC-1 | ZR-75-30 | HT55 | YH-13 | NCI-H1703 | OC-314 | NCI-H2291 | NCI-H1573

O=C(c1cc(Cc2n[nH]c(=O)c3ccccc23)ccc1F)N1CCN(C(=O)C2CC2)CC1 [OLAPARIB]
> 5000 nM: HuO9 | TGBC11TKB | NCI-H1048 | SW 1116 | SNU-423 | CFPAC-1 | ZR-75-30 | MOLT-13 | HT55 | YH-13 | NCI-H1703 | OC-314 | NCI-H2291 | NCI-H1573
4400 nM: Kasumi 1

CN1CCN(CCOc2cc(OC3CCOCC3)c3c(Nc4c(Cl)ccc5c4OCO5)ncnc3c2)CC1 [SARACATINIB]
1670 nM: RL95-2
790 nM: NCI-H1436
732 nM: NCCIT
not listed: HuO9 | TGBC11TKB | NCI-H1048 | SW 1116 | SNU-423 | CFPAC-1 | ZR-75-30 | HT55 | YH-13 | NCI-H1703 | OC-314 | NCI-H2291 | NCI-H1573
> 2000 nM: all other assays above
